Experimental data from ChEMBL document CHEMBL4765232 (J Med Chem, 2016).

Experiments:
[1] = target: T1, Histone-lysine N-methyltransferase EZH2 (Homo sapiens, UniProt Q15910); experiment: Inhibition of wild-type EZH2 in PRC2 complex (unknown origin) using RKQLATKAARK(Me3)SAPATGGVKKP-NH2 peptide substrate preincubated for 30 mins followed by addition of [3H]-SAM measured after 2 hrs by Topcount scintillation proximity assay
[2] = target: T1, Histone-lysine N-methyltransferase EZH2; experiment: Inhibition of EZH2 in human HeLa cells assessed as inhibition of trimethylation of H3K27 after 72 hrs by AlphaLISA assay; format: cell-based
[3] = Protein binding in dog plasma assessed as bound fraction; format: ADME, cell-free, Canis lupus familiaris; details: read-out: PPB (converted)
[4] = Protein binding in rat plasma assessed as bound fraction; format: ADME, cell-free; details: read-out: PPB (converted)
CYP3A4 = CYP3A4 (Homo sapiens, UniProt P08684); experiment: Inhibition of CYP3A4 (unknown origin) at 10 uM relative to control; format: ADME
Chain of CYP3A4 (P08684 whole entry): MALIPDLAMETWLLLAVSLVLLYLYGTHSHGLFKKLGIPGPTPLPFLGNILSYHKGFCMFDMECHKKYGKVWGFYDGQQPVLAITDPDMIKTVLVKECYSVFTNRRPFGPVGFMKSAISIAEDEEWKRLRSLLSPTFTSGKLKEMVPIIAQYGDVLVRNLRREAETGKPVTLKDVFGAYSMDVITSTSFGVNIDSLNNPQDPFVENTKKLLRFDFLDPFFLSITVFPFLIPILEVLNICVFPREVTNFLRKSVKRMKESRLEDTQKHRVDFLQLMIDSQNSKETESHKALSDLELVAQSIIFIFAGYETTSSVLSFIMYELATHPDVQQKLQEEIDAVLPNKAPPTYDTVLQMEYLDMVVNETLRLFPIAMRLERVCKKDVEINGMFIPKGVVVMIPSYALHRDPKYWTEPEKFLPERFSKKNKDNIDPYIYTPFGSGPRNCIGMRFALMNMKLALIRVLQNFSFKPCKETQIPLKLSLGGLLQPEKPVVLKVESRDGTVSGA

[5] = Intrinsic clearance in mouse liver microsomes assessed per mg protein; format: ADME, Microsome
CYP2C8 = target: T2, CYP2C8 (Homo sapiens, UniProt P10632); experiment: Inhibition of CYP2C8 (unknown origin) at 10 uM relative to control; format: ADME
T2 sequence (P10632 whole entry): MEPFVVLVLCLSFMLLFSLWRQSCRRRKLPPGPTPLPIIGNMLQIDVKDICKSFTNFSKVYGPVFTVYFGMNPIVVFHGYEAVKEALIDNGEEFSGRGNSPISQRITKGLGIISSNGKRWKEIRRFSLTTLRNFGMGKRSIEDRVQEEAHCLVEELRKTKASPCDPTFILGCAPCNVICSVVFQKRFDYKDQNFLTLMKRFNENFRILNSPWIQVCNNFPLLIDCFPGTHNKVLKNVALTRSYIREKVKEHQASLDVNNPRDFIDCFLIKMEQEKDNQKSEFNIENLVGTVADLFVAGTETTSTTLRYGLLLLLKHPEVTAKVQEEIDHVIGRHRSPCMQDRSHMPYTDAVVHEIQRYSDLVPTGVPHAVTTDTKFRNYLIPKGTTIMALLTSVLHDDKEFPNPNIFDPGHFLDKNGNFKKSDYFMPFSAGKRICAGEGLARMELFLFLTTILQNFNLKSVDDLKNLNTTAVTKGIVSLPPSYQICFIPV

[6] = Intrinsic clearance in rat liver microsomes assessed per mg protein; format: ADME, Microsome
CYP1A2 = target: T3, CYP1A2 (Homo sapiens, UniProt P05177); experiment: Inhibition of CYP1A2 (unknown origin) at 10 uM relative to control; format: ADME
T3 sequence (P05177 whole entry): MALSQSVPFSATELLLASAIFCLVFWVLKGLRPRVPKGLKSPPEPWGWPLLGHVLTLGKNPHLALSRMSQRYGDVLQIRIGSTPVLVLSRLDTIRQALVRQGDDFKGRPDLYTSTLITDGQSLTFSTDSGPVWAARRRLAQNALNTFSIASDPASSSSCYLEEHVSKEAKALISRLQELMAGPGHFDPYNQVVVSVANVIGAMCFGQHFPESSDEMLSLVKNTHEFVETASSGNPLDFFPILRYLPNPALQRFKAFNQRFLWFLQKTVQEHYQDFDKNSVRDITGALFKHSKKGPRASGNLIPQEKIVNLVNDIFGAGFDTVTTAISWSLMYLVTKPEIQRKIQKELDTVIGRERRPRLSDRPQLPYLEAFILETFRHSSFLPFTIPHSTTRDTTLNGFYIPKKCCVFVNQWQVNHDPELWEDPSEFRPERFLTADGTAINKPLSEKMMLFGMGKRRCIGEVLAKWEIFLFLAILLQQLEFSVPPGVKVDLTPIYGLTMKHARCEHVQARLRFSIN

CYP2C9 = CYP2C9 (Homo sapiens, UniProt P11712); experiment: Inhibition of CYP2C9 (unknown origin) at 10 uM relative to control; format: ADME
Chain of CYP2C9 (P11712 whole entry): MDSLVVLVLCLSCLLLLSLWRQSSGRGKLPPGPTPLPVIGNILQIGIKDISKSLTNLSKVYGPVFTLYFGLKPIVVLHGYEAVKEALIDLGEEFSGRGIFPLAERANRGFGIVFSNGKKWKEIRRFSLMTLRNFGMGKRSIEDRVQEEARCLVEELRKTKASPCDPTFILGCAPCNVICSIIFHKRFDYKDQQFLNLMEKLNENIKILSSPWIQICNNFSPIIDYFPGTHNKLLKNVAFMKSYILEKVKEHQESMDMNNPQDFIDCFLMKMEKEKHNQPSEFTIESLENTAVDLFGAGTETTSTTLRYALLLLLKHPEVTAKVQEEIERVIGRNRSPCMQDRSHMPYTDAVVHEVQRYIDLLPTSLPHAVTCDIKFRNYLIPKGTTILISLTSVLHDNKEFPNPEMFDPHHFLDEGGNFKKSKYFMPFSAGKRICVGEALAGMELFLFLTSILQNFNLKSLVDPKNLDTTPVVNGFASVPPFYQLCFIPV

[7] = Intrinsic clearance in dog liver microsomes assessed per mg protein; format: ADME, Canis lupus familiaris, Microsome
[8] = Intrinsic clearance in human liver microsomes assessed per mg protein; format: ADME, Microsome
CYP2D6 = CYP2D6 (Homo sapiens, UniProt P10635); experiment: Inhibition of CYP2D6 (unknown origin) at 10 uM relative to control; format: ADME
Chain of CYP2D6 (P10635 whole entry): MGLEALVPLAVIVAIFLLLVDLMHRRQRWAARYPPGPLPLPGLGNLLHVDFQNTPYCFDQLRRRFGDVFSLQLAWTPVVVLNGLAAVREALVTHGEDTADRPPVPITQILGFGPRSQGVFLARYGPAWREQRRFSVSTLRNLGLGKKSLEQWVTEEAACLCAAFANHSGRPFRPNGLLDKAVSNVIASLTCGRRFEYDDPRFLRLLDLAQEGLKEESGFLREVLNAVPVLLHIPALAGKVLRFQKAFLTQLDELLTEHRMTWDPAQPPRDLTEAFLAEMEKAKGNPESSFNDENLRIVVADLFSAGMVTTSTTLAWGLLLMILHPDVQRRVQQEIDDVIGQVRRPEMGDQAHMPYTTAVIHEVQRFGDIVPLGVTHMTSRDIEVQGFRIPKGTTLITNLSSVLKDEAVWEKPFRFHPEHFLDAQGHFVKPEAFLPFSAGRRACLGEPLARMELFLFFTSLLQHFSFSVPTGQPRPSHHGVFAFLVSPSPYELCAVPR

[9] = Protein binding in mouse plasma assessed as bound fraction; format: ADME, cell-free; details: for fraction unbound: read-out: PPB (converted)
[10] = Protein binding in human plasma assessed as bound fraction; format: ADME, cell-free; details: read-out: PPB (converted)
[11] = Unbound Cmax in Balb/c mouse at 100 mg/kg, po formulated in 0.5 % methyl cellulose maintained at pH 3; format: ADME, organism-based; details: in vivo, pH 3, 100 mg/kg
[12] = Volume of distribution at steady in Balb/c mouse at 1 mg/kg, iv formulated with 5:25:70 DMA/PEG400/20% SBECD; format: ADME, organism-based; details: in vivo, read-out: Vdss
[13] = Unbound AUC in Balb/c mouse at 100 mg/kg, po formulated in 0.5 % methyl cellulose maintained at pH 3; format: ADME, organism-based; details: in vivo, pH 3, 100 mg/kg
[14] = Tmax in Balb/c mouse at 100 mg/kg, po formulated in 0.5 % methyl cellulose maintained at pH 3; format: ADME, organism-based; details: in vivo, pH 3, 100 mg/kg
[15] = Clearance in Balb/c mouse at 1 mg/kg, iv formulated with 5:25:70 DMA/PEG400/20% SBECD; format: ADME, organism-based; details: in vivo
[16] = Half life in Balb/c mouse plasma at 1 mg/kg, iv formulated with 5:25:70 DMA/PEG400/20% SBECD; format: ADME, organism-based
[17] = AUC (0 to infinity) in Balb/c mouse at 100 mg/kg, po formulated in 0.5 % methyl cellulose maintained at pH 3; format: ADME, organism-based; parameters: time infinity, route oral, dose 100 mg/kg; details: in vivo, pH 3, 100 mg/kg
[18] = Unbound clearance in Balb/c mouse at 1 mg/kg, iv formulated with 5:25:70 DMA/PEG400/20% SBECD; format: ADME, organism-based; details: in vivo
[19] = Cmax in Balb/c mouse at 100 mg/kg, po formulated in 0.5 % methyl cellulose maintained at pH 3; format: ADME, organism-based; parameters: route oral, dose 100 mg/kg; details: in vivo, pH 3, 100 mg/kg
[20] = Oral bioavailability in Balb/c mouse at 100 mg/kg formulated in 0.5 % methyl cellulose maintained at pH 3; format: ADME, organism-based; details: in vivo, pH 3, 100 mg/kg
[21] = Fraction unbound in mouse plasma; format: ADME, cell-free
[22] = Clearance in Balb/c mouse at 1 mg/kg, iv formulated with 5:25:70 DMA/PEG400/20% SBECD relative to liver blood flow; format: ADME, organism-based; details: in vivo

T1 sequence (Q15910 whole entry): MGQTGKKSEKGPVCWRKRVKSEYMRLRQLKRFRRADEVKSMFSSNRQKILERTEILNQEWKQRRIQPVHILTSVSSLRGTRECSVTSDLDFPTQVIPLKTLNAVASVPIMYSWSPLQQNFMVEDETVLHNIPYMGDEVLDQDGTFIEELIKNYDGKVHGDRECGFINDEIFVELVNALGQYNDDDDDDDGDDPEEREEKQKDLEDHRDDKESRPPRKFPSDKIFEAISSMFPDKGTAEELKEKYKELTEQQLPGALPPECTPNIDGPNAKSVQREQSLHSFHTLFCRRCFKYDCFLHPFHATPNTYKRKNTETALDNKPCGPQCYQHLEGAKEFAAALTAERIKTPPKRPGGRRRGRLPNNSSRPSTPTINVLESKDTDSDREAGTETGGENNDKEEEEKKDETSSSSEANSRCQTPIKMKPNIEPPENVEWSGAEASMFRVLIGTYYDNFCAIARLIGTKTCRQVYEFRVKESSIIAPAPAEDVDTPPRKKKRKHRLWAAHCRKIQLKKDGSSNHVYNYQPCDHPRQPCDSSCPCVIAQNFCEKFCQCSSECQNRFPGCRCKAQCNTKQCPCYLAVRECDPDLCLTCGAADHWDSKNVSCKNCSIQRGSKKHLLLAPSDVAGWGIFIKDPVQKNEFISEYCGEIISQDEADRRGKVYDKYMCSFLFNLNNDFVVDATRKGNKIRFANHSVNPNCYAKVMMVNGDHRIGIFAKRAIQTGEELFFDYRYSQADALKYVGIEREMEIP

Question: Which IC50 [1] does the source give for `COc1cc(C)[nH]c(=O)c1CNC(=O)c1c(C)n([C@H](C)C2CCN(C(=O)C(C)C)CC2)c2ccccc12` here?
Answer: 2.5 nM

Question: And the EC50 [2]?
Answer: 420 nM

Question: Which results are given for `COc1cc(C)[nH]c(=O)c1CNC(=O)c1c(C)n([C@H](C)C2CCN(CC(C)(F)F)CC2)c2ccccc12`?
Answer: fraction unbound [3]: 0.064; fraction unbound [4]: 0.076; IC50 [1]: < 1 nM; inhibition at 10 µM (CYP3A4): 0%; CLH [5]: 193 µL/min; inhibition at 10 µM (CYP2C8): 50.9%; EC50 [2]: 20 nM; CLH [6]: 86.1 µL/min; inhibition at 10 µM (CYP1A2): 0%; inhibition at 10 µM (CYP2C9): 5%; CLH [7]: 68.9 µL/min; CLH [8]: 83.8 µL/min; inhibition at 10 µM (CYP2D6): 7.7%; fraction unbound [9]: 0.006; fraction unbound [10]: 0.053

Question: Which results are given for `COc1cc(C)[nH]c(=O)c1CNC(=O)c1c(C)n([C@H](C)C2CCN(C)CC2)c2ccccc12`?
Answer: IC50 [1]: < 1 nM; EC50 [2]: 470 nM

Question: Which IC50 [1] does the source give for `CCOC(=O)CN1CCC([C@@H](C)n2c(C)c(C(=O)NCc3c(OC)cc(C)[nH]c3=O)c3ccccc32)CC1` here?
Answer: < 1 nM

Question: And the EC50 [2]?
Answer: 260 nM

Question: Which IC50 [1] does the source give for `COc1cc(C)[nH]c(=O)c1CNC(=O)c1c(C)n([C@H](C)C2CCN(C3COC3)CC2)c2ccccc12` here?
Answer: < 1 nM

Question: And the EC50 [2]?
Answer: 150 nM

Question: For `COc1cc(C)[nH]c(=O)c1CNC(=O)c1c(C)n([C@H](C)C2CCN(CCC(F)(F)F)CC2)c2ccccc12`, which fraction unbound [3] is on record?
Answer: 0.037

Question: What about the fraction unbound [4] of the same compound?
Answer: 0.026

Question: And the IC50 [1]?
Answer: 2.3 nM

Question: What about the inhibition at 10 µM (CYP3A4) of the same compound?
Answer: 5%

Question: And the CLH [5]?
Answer: 61.3 µL/min

Question: What about the inhibition at 10 µM (CYP2C8) of the same compound?
Answer: 23.1%

Question: And the EC50 [2]?
Answer: 290 nM

Question: What about the CLH [6] of the same compound?
Answer: 25.7 µL/min

Question: And the inhibition at 10 µM (CYP1A2)?
Answer: 19.4%

Question: And the inhibition at 10 µM (CYP2C9)?
Answer: 11.6%

Question: And the CLH [7]?
Answer: 35.3 µL/min

Question: What about the CLH [8] of the same compound?
Answer: 35.4 µL/min

Question: What about the inhibition at 10 µM (CYP2D6) of the same compound?
Answer: 17.2%

Question: And the fraction unbound [9]?
Answer: 0.003

Question: And the fraction unbound [10]?
Answer: 0.041

Question: With `COc1cc(C)[nH]c(=O)c1CNC(=O)c1c(C)n([C@H](C)C2CCNCC2)c2ccccc12` as the compound, how does the IC50 [1] read?
Answer: 2 nM

Question: What about the EC50 [2] of the same compound?
Answer: 1100 nM

Question: For `COc1cc(C)[nH]c(=O)c1CNC(=O)c1c(C)n([C@H](C)C2CCN(C(=O)OC(C)C)CC2)c2ccccc12`, which IC50 [1] is on record?
Answer: < 1 nM

Question: And the EC50 [2]?
Answer: 110 nM

Question: Which IC50 [1] does the source give for `COc1cc(C)[nH]c(=O)c1CNC(=O)c1c(C)n([C@H](C)C2CCN(C(=O)N(C)C)CC2)c2ccccc12` here?
Answer: 3.3 nM

Question: What about the EC50 [2] of the same compound?
Answer: 930 nM

Question: What does the source list for `COc1cc(C)[nH]c(=O)c1CNC(=O)c1c(C)n([C@H](C)C2CCN(CC(F)(F)C(F)F)CC2)c2ccccc12`?
Answer: IC50 [1]: 1.6 nM; EC50 [2]: 38 nM

Question: For `COc1cc(C)[nH]c(=O)c1CNC(=O)c1c(C)n([C@H](C)C2CCN(CC(F)F)CC2)c2ccccc12`, which fCmax [11] is on record?
Answer: 1.15 µM

Question: And the Vd [12]?
Answer: 1.1 L/kg

Question: And the fraction unbound [3]?
Answer: 0.357

Question: What about the fAUC [13] of the same compound?
Answer: 0.924 µM·h

Question: And the Tmax [14]?
Answer: 15 min

Question: What about the fraction unbound [4] of the same compound?
Answer: 0.169

Question: And the IC50 [1]?
Answer: 1.8 nM

Question: What about the inhibition at 10 µM (CYP3A4) of the same compound?
Answer: 25.2%

Question: What about the clearance [15] of the same compound?
Answer: 74.2 mL/min/kg

Question: And the CLH [5]?
Answer: 131 µL/min

Question: And the half-life [16]?
Answer: 24.1 min

Question: And the inhibition at 10 µM (CYP2C8)?
Answer: 18.9%

Question: And the EC50 [2]?
Answer: 39 nM

Question: And the CLH [6]?
Answer: 71.3 µL/min

Question: And the inhibition at 10 µM (CYP1A2)?
Answer: 28.6%

Question: What about the AUC [17] of the same compound?
Answer: 42.01 µM·h

Question: What about the inhibition at 10 µM (CYP2C9) of the same compound?
Answer: 25.4%

Question: And the CLH [7]?
Answer: 52.4 µL/min

Question: And the CL free [18]?
Answer: 3372 mL/min/kg

Question: What about the Cmax [19] of the same compound?
Answer: 52.1 µM

Question: And the inhibition at 10 µM (CYP2D6)?
Answer: 26.1%

Question: What about the F [20] of the same compound?
Answer: 91.6%

Question: And the Fu [21]?
Answer: 0.022%

Question: What about the PPB [9] of the same compound?
Answer: 97.8%

Question: What about the fraction unbound [10] of the same compound?
Answer: 0.167

Question: And the CL [22]?
Answer: 82%
